Values quoted from earlier work in article PMC9370779, “Traditional Medicinal Uses, Phytochemistry, Biological Properties, and Health Applications of Vitex sp” (Plants, 2022).
“Also recorded” adds a separate entry of the source.

Columns and labels:
dopamine-D2-receptor = molecular target: dopamine-D2-receptor; parameters: method as in PMID 10865453
[1] = test system: cervical cancer (HeLa) cell; parameters: method as in PMID 19156599; conditions: range given for both compounds together; read-out: inhibition of HeLa cell proliferation, IC50
DOR = test system: DOR; parameters: method as in PMID 21163339
MOR = test system: MOR; parameters: method as in PMID 21163339
[2] = test system: severe myelogenous leukemia tumor (K562) cells; parameters: method as in doi:10.1016/j.jscs.2021.101298; conditions: read-out: cytotoxicity against K562 cells, IC50 value
[3] = test system: human liver carcinoma (HepG2) cell lines; parameters: method as in PMID 27118321
RAW 264.7 macrophages = test system: RAW 264.7 macrophages; parameters: method as in PMID 25245917; conditions: at 40 μM
[4] = test system: pancreatic cancer (PANC-01)
[5] = test system: gastric cancer (SGC-7901)
[6] = test system: esophageal carcinoma (Eca-109)
[7] = test system: LPS-induced NO production in murine microglial cell BV-2 cells; parameters: method as in PMID 31448638; conditions: read-out: inhibition of LPS-stimulated NO production, IC50
BV-2 cells = test system: BV-2 cells; parameters: method as in PMID 31448638
NO production = test system: NO production; parameters: method as in PMID 25245917; conditions: at 80 μM, the highest concentration tested

C=CC(C)(O)CCC1=C(C)C(OC(C)=O)C(OC(C)=O)C2C(C)(C)CCCC12C (stereo not drawn) [Compound 52, 6β,7β-diacetoxy-13-hydroxy-labda-8,14-diene]
affinity to the dopamine-D2-receptor, IC50 value (dopamine-D2-receptor): It showed strong affinity to the dopamine-D2-receptor with IC50 value of 15 μg/mL.

CC(=O)O[C@H]1CC[C@@]2(C)[C@@H](CC[C@@H](C)[C@]2(O)CCc2ccoc2)C1(C)C [Compound 56, Vitetrifolin H]
IC50 [1]: 4 to 28 µM

CC(=O)O[C@@H]1C[C@@H](C)[C@](O)(CCC2=CC(=O)OC2O)[C@@]2(C)CCCC(C)(C)[C@H]12 (some centres unmarked) [Compound 58, Viteagnusin I]
activity on opioid receptor assay DOR (DOR): No activity was shown on opioid receptor assays DOR and MOR. | activity on opioid receptor assay MOR (MOR): No activity was shown on opioid receptor assays DOR and MOR.

CC(=O)OC1CC(C)C2(CCC3(COC(=O)C3)O2)C2(C)CCCC(C)(C)C12 (centres unmarked) [Compound 99, 9-epivitexnegundin]
IC50 [2]: > 100 µM

COc1cc(C2c3c(cc(OC)c(O)c3OC)C=C(C=O)C2COC2OC(CO)C(O)C(O)C2O)ccc1O (centres unmarked) [Compound 130, vitexnegheteroin F]
cytotoxic activity against HepG2 cell lines [3]: moderate cytotoxic activity; also recorded: Exhibited moderate cytotoxic activities against human liver carcinoma (HepG2) cell lines

CC1(C)CC[C@@]23CC[C@@]4(C)[C@]5(C)CC[C@H]6C(C)(C)[C@@H](O)[C@H](O)C[C@]6(C)[C@H]5CC(=O)[C@]4(OC2=O)[C@@H]3C1 [Compound 145, cannabifolin E]
cell viability of RAW 264.7 macrophages (RAW 264.7 macrophages): < 70%

CC1C(C=O)CCC2(C(=O)O)CCC3(C)C(=CCC4C5(C)CCC(O)C(C)(C)C5CCC43C)C12 (stereo not drawn) [Compound 147, 3β-hydroxy-30-al-urs-12-en-28-oic acid]
cytotoxic activity against PANC-01 [4]: Exhibited cytotoxic activity against HL-60, SGC-7901, PANC-01, and Eca-109 cell lines | cytotoxic activity against SGC-7901 [5]: Exhibited cytotoxic activity against HL-60, SGC-7901, PANC-01, and Eca-109 cell lines | cytotoxic activity against HL-60 (leukemia (HL-60)): Exhibited cytotoxic activity against HL-60, SGC-7901, PANC-01, and Eca-109 cell lines | cytotoxic activity against Eca-109 [6]: Exhibited cytotoxic activity against HL-60, SGC-7901, PANC-01, and Eca-109 cell lines

O=C(O)CC1CCC(=O)C1CC=CCCOC1OC(COC(=O)C=Cc2ccc(O)c(O)c2)C(O)C(O)C1O (centres unmarked) [Compound 159, 12-hydroxyjasmonic acid (6-O-caffeoyl)glucoside]
IC50 [7]: > 100 µM | cytotoxic effect on BV-2 cells (BV-2 cells): no cytotoxic effect; also recorded: no effect of cytotoxicity

cannabifolin F [Compound 146]
inhibition of NO production (NO production): < 50%
